Legend:
Format in all cases: cell-based
[1] = biological target: T1, Androgen Receptor (AR) protein (Homo sapiens, UniProt P10275, T878A); assay: Androgen Receptor (AR) protein degradation assay in LNCaP cells, western blotting; settings: 20 h; for inhibition at 0.01 µM: 0.01 μM compound; for inhibition at 0.1 µM: 0.1 μM compound; for inhibition at 1 µM: 1 μM compound; for inhibition at 10 µM: 10 μM compound
T1 construct: endogenous in cells; host or cells: LNCaP
Procedure, shortened: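 AR protein level was detected by western blot (ECL) against GAPDH or β-actin controls, with 8 μg lysate protein loaded per lane after BCA quantification. Lysates came from LNCaP cells exposed to test compound for 20 h, following 3 days of growth in RPMI/10% FBS.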

[2] = biological target: T877A AR mutant (Homo sapiens, UniProt P10275, T878A); assay: Degradation of AR mutant T877A; settings: at a concentration of 100 nM
T877A AR mutant, sequence (P10275 whole entry T878A): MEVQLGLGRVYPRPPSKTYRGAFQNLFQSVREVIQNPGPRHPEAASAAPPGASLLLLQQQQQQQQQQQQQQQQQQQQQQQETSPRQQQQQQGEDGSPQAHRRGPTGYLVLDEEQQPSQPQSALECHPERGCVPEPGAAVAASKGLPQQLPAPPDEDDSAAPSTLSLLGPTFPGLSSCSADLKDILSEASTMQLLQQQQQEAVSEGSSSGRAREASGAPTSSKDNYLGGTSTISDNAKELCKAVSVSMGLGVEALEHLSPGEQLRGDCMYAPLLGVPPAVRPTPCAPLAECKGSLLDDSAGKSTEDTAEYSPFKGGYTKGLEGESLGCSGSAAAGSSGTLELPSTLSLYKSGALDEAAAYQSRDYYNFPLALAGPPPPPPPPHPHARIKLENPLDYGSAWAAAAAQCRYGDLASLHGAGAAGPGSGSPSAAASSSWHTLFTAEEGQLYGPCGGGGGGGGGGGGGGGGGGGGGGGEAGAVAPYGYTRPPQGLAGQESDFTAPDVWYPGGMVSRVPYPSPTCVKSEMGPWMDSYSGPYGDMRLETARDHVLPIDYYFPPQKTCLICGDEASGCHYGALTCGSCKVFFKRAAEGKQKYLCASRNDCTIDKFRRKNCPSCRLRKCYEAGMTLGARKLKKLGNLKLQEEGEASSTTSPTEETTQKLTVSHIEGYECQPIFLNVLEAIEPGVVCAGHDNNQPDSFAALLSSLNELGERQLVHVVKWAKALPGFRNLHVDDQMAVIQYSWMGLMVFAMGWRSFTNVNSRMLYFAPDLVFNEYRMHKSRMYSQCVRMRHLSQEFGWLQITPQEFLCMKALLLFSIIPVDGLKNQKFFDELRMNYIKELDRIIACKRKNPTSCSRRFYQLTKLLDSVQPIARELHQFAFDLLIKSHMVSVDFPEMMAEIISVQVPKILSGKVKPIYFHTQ
T877A AR mutant, sequence (Q96SW2 whole entry partner): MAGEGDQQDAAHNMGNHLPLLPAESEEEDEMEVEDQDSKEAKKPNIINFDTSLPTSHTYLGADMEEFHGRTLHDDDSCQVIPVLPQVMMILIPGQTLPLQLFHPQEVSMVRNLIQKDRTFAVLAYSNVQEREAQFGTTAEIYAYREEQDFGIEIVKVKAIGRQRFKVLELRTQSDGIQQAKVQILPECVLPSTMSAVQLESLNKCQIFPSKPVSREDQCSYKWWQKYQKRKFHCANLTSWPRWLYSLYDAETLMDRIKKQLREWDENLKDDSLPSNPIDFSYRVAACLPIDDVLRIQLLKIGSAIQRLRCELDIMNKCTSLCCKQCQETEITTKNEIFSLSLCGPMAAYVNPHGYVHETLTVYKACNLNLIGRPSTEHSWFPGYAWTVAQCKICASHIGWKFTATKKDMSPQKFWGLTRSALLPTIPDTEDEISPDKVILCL
Excerpt: On the other hand, the compounds of the present invention have excellent degradation activity against AR mutants (T877A, M896V, F876L, H874Y, L702H, W741C, etc.). Since resistance to existing anti-androgen receptor drugs can be caused by AR mutation, the excellent AR mutant-degrading activity of the compounds of the present invention can help overcome resistance to existing drugs.

[3] = biological target: T2, AR-V7 (Homo sapiens, UniProt P10275); assay: Reduction of expression of AR splicing variant AR-V7; settings: at a concentration of 100 nM
T2 sequence (P10275 1-644 isoform P10275-3): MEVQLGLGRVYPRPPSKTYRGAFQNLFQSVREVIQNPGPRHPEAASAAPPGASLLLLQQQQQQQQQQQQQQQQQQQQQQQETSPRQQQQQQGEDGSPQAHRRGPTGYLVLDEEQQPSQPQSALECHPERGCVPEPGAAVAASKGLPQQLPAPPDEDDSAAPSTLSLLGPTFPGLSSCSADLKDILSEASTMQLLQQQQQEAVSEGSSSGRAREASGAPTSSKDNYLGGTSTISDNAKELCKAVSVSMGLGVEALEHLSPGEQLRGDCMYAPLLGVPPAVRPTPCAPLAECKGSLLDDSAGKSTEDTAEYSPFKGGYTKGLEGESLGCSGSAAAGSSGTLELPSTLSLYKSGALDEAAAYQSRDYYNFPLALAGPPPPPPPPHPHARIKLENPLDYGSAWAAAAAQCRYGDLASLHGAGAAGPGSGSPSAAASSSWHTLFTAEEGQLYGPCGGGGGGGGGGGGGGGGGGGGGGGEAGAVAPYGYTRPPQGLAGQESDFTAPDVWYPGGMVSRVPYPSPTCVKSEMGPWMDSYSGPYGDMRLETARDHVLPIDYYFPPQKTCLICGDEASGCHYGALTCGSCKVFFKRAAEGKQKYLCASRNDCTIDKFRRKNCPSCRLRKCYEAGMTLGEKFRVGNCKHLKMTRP
Excerpt: In addition, another mechanism by which resistance to existing treatments occurs is the expression of AR splicing variants (eg, AR-V7). The compounds of the present invention are excellent in reducing the expression of these variants (eg, AR-V7), and thus have a better anti-proliferative effect in AR-V7 positive prostate cancer cells. For example, the compounds of Examples 6 and 169 of the present disclosure inhibited the expression of AR-V7 by 87% and 48%, respectively, at a concentration of 100 nM.

T1 sequence (P10275 whole entry T878A): as the sequence (P10275 whole entry T878A) above
T1 sequence (Q96SW2 whole entry partner): as the sequence (Q96SW2 whole entry partner) above

SMILES	inhibition at 0.01 µM [1] [%]	inhibition at 0.1 µM [1] [%]	inhibition at 1 µM [1] [%]	inhibition at 10 µM [1] [%]	degradation activity for the T877A AR mutant [2] [%]	inhibited the expression of AR-V7 [3] [%]
N#Cc1ccc(N2CCC(C(=O)Nc3ccc(N4CCC(CN5CCN(CC6CCN(c7ccc8c(c7)C(=O)N(C7CCC(=O)NC7=O)C8=O)CC6)CC5)CC4)cn3)CC2)cc1C(F)(F)F (stereo not shown) [Example 6, 1-(4-cyano-3-(trifluoromethyl)phenyl)-N-(5-(4-((4-((1-(2-(2,6-dioxopiperidin-3-yl)-1,3-dioxoisoindolin-5-yl)piperidin-4-yl)methyl)piperazin-1-yl)methyl)piperidin-1-yl)pyridin-2-yl)piperidine-4-carboxamide]	83	99	99	97	73	87
N#Cc1ccc(N2CCC(C(=O)Nc3ccc(N4CCC(CN5CC6(CCN(c7ccc8c(c7)C(=O)N(C7CCC(=O)NC7=O)C8=O)CC6)C5)CC4)cn3)CC2)cc1C(F)(F)F (stereo not shown) [Example 49, 1-(4-cyano-3-(trifluoromethyl)phenyl)-N-(5-(4-((7-(2-(2,6-dioxopiperidin-3-yl)-1,3-dioxoisoindolin-5-yl)-2,7-diazaspiro[3.5]nonan-2-yl)methyl)piperidin-1-yl)pyridin-2-yl)piperidine-4-carboxamide]	68	98	99	99	46	–
N#Cc1ccc(N2CCC(C(=O)Nc3ccc(OC4CCN(CC5CCN(c6ccc7c(c6)C(=O)N(C6CCC(=O)NC6=O)C7=O)CC5)CC4)cn3)CC2)cc1C(F)(F)F (stereo not shown) [Example 169, 1-(4-cyano-3-(trifluoromethyl)phenyl)-N-(5-((1-((1-(2-(2,6-dioxopiperidin-3-yl)-1,3-dioxoisoindolin-5-yl)piperidin-4-yl)methyl)piperidin-4-yl)oxy)pyridin-2-yl)piperidine-4-carboxamide]	85	99	99	–	–	48
N#Cc1ccc(N2CCC(C(=O)Nc3ccc(CC4CCN(CC5CCN(c6cc7c(cc6F)C(=O)N(C6CCC(=O)NC6=O)C7=O)CC5)CC4)cn3)CC2)cc1C(F)(F)F (stereo not shown) [Example 182, 1-(4-cyano-3-(trifluoromethyl)phenyl)-N-(5-((1-((1-(2-(2,6-dioxopiperidin-3-yl)-6-fluoro-1,3-dioxoisoindolin-5-yl)piperidin-4-yl)methyl)piperidin-4-yl)methyl)pyridin-2-yl)piperidine-4-carboxamide]	72	96	98	–	–	–
N#Cc1ccc(N2CCC(C(=O)Nc3ccc(OCC4CCN(CC5CN(c6ccc7c(c6)C(=O)N(C6CCC(=O)NC6=O)C7=O)C5)CC4)cn3)CC2)cc1C(F)(F)F (stereo not shown) [Example 183, 1-(4-cyano-3-(trifluoromethyl)phenyl)-N-(5-((1-((1-(2-(2,6-dioxopiperidin-3-yl)-1,3-dioxoisoindolin-5-yl)azetidin-3-yl)methyl)piperidin-4-yl)methoxy)pyridin-2-yl)piperidine-4-carboxamide]	72	87	93	–	–	–
CC1(CN2CCC(COc3ccc(NC(=O)C4CCN(c5ccc(C#N)c(C(F)(F)F)c5)CC4)nc3)CC2)CN(c2ccc3c(c2)C(=O)N(C2CCC(=O)NC2=O)C3=O)C1 (stereo not shown) [Example 184, 1-(4-cyano-3-(trifluoromethyl)phenyl)-N-(5-((1-((1-(2-(2,6-dioxopiperidin-3-yl)-1,3-dioxoisoindolin-5-yl)-3-methylazetidin-3-yl)methyl)piperidin-4-yl)methoxy)pyridin-2-yl)piperidine-4-carboxamide]	72	91	97	–	–	–
N#Cc1ccc(N2CCC(C(=O)Nc3ccc(OCC4CN(CC5CCN(c6ccc7c(c6)C(=O)N(C6CCC(=O)NC6=O)C7=O)CC5)C4)cn3)CC2)cc1C(F)(F)F (stereo not shown) [Example 185, 1-(4-cyano-3-(trifluoromethyl)phenyl)-N-(5-((1-((1-(2-(2,6-dioxopiperidin-3-yl)-1,3-dioxoisoindolin-5-yl)piperidin-4-yl)methyl)azetidin-3-yl)methoxy)pyridin-2-yl)piperidine-4-carboxamide]	85	97	99	–	–	–
CC1(COc2ccc(NC(=O)C3CCN(c4ccc(C#N)c(C(F)(F)F)c4)CC3)nc2)CN(CC2CCN(c3ccc4c(c3)C(=O)N(C3CCC(=O)NC3=O)C4=O)CC2)C1 (stereo not shown) [Example 186, 1-(4-cyano-3-(trifluoromethyl)phenyl)-N-(5-((1-((1-(2-(2,6-dioxopiperidin-3-yl)-1,3-dioxoisoindolin-5-yl)piperidin-4-yl)methyl)-3-methylazetidin-3-yl)methoxy)pyridin-2-yl)piperidine-4-carboxamide]	66	94	96	–	–	–
N#Cc1ccc(N2CCC(C(=O)Nc3ccc(OC4CCN(CC5CCN(c6ccc7c(c6)C(=O)N(C6CCC(=O)NC6=O)C7=O)CC5)CC4)nn3)CC2)cc1C(F)(F)F (stereo not shown) [Example 187, 1-(4-cyano-3-(trifluoromethyl)phenyl)-N-(6-((1-((1-(2-(2,6-dioxopiperidin-3-yl)-1,3-dioxoisoindolin-5-yl)piperidin-4-yl)methyl)piperidin-4-yl)oxy)pyridazin-3-yl)piperidine-4-carboxamide]	63	90	–	–	–	–
N#Cc1ccc(N2CCC(C(=O)Nc3ccc(CN4CCC(CN5CCN(c6cc7c(cc6F)C(=O)N(C6CCC(=O)NC6=O)C7=O)CC5)CC4)cn3)CC2)cc1C(F)(F)F (stereo not shown) [Example 188, 1-(4-cyano-3-(trifluoromethyl)phenyl)-N-(5-((4-((4-(2-(2,6-dioxopiperidin-3-yl)-6-fluoro-1,3-dioxoisoindolin-5-yl)piperazin-1-yl)methyl)piperidin-1-yl)methyl)pyridin-2-yl)piperidine-4-carboxamide]	1	45	–	–	–	–
N#Cc1ccc(N2CCC(C(=O)Nc3ccc(CCN4CCC(CN5CCN(c6cc7c(cc6F)C(=O)N(C6CCC(=O)NC6=O)C7=O)CC5)CC4)cn3)CC2)cc1C(F)(F)F (stereo not shown) [Example 189, 1-(4-cyano-3-(trifluoromethyl)phenyl)-N-(5-(2-(4-((4-(2-(2,6-dioxopiperidin-3-yl)-6-fluoro-1,3-dioxoisoindolin-5-yl)piperazin-1-yl)methyl)piperidin-1-yl)ethyl)pyridin-2-yl)piperidine-4-carboxamide]	8	79	–	–	–	–
N#Cc1ccc(N2CCC(C(=O)Nc3ccc(N4CC(CN5CCC(CN6CCN(c7ccc8c(c7)C(=O)N(C7CCC(=O)NC7=O)C8=O)CC6)CC5)C4)cn3)CC2)cc1C(F)(F)F (stereo not shown) [Example 190, 1-(4-cyano-3-(trifluoromethyl)phenyl)-N-(5-(3-((4-((4-(2-(2,6-dioxopiperidin-3-yl)-1,3-dioxoisoindolin-5-yl)piperazin-1-yl)methyl)piperidin-1-yl)methyl)azetidin-1-yl)pyridin-2-yl)piperidine-4-carboxamide]	-11	61	–	–	–	–
N#Cc1ccc(N2CCC(C(=O)Nc3ccc(N4CC(CN5CCC(CN6CCN(c7cc8c(cc7F)C(=O)N(C7CCC(=O)NC7=O)C8=O)CC6)CC5)C4)cn3)CC2)cc1C(F)(F)F (stereo not shown) [Example 191, 1-(4-cyano-3-(trifluoromethyl)phenyl)-N-(5-(3-((4-((4-(2-(2,6-dioxopiperidin-3-yl)-6-fluoro-1,3-dioxoisoindolin-5-yl)piperazin-1-yl)methyl)piperidin-1-yl)methyl)azetidin-1-yl)pyridin-2-yl)piperidine-4-carboxamide]	3	84	–	–	–	–
N#Cc1ccc(N2CCC(C(=O)Nc3ccc(N4CCC(CCN5CCN(c6cc7c(cc6F)C(=O)N(C6CCC(=O)NC6=O)C7=O)CC5)CC4)cn3)CC2)cc1C(F)(F)F (stereo not shown) [Example 192, 1-(4-cyano-3-(trifluoromethyl)phenyl)-N-(5-(4-(2-(4-(2-(2,6-dioxopiperidin-3-yl)-6-fluoro-1,3-dioxoisoindolin-5-yl)piperazin-1-yl)ethyl)piperidin-1-yl)pyridin-2-yl)piperidine-4-carboxamide]	-11	15	67	–	–	–

From patent US12122763B2, “Substituted piperidines for androgen receptor degradation” (UBIX THERAPEUTICS, INC., priority 2020, dated 2024)
